Converted amounts (≈) assume the structure as drawn. Like-named read-outs stand apart in the source and are kept apart here.
How the values were obtained:
Candida albicans = test: Broth microdilution antimicrobial assay, C. albicans; type: cell-based; conditions: read-out: MFC C. albicans
Experimental: (§1) Exactly 1.5 mg of sodium;10-oxido-7-oxophenoxazin-10-ium-3-olate was dissolved in 100 mL of distilled water, vortexed, filtered, sterilised, and stored at 4 °C for a maximum of 14 days before being applied as a growth indicator. 1000 μM stock solution of Schiff bases (1–9) was prepared in DMSO.
(§2) Fungi (Aspergillus niger, Candida albicans), Gram-positive bacteria (Staphylococcus aureus, Enterococcus faecalis), and Gram-negative bacteria (Salmonella typhi, Escherichia coli).
(§3) Colonies from a 24 h culture agar plate were collected with a loop and transferred to a tube containing lysogeny broth (LB). The various suspensions were incubated at 37 °C and the size adjusted to 1.5 × 10^6 CFU/mL [27].
(§4) The antimicrobial activity of Schiff bases (1–9), was evaluated using 96-well broth microdilution method as described by de Rapper et al. (2013) and Akhalwaya et al. (2018) with slight modifications. Columns 1–11 was filled 50 µL LB, followed by the addition of 50 µL of Schiff base to column 1. Thereafter, 50 µL of Schiff bases from column 1 was transferred by multichannel pipette to columns 2–10, resulting in 50 µL Schiff bases per well. Column 11 contained 100 µL of diluted standardised inoculum, while Column 12 contained 100 µL of LB as a control to monitor sterility. Then, 50 µL of the microorganism suspension was then added to columns 1–10 and the control column 11. The plates were incubated at 37 °C for 24 h, followed by the addition of 30 µL of growth indicator solution and further incubated for 2 h for the observation of colour change. On completion of incubation, the columns with blue indicator colour were reported as the MIC (µM) values. The columns with a concentration higher than the MIC value were plated on nutrient agar to determine the minimum bactericidal and fungicidal concentrations.

α-amylase = test: α-Amylase inhibitory activity; type: biochemical; conditions: Means ×10^2 ± SD from at least three experiments
Experimental: The α-amylase inhibitory activity of Schiff bases (1–9) was evaluated by the method reported by Xiao et al. with slight modifications. Substrate solution is prepared by dissolving 1.0 g of starch in 50 mL of 0.4 M NaOH and heated at 100 °C for 5 min. The substrate solution was adjusted to a neutral pH by the addition of 0.1 M HCl, cooled on crushed ice and made to 100 mL in a standard volumetric flask with distilled water. […] Using a microplate, 40 μL substrate and 20 μL Schiff base solution were mixed, then preincubated at 37 °C for 3 min. Thereafter, 20 μL of 50 μg/mL α-amylase solution was dispensed into each well, and further incubated for 15 min. The reaction was terminated by the addition of 80 μL HCl (0.1 M); followed by 200 μL of 1 mM iodine solution, and the absorbances measured at 650 nm. Inhibitory activity was calculated from Equation (5):(5) α − amylase inhibition (%) = (A2 − A1/A4 − A3)100 where A1 is the absorbance of Schiff base, starch, and α-amylase solution after incubation, A2 is the absorbance of Schiff base and starch solution after incubation, A3 is the absorbance of starch and amylase solution after incubation, and A4 is the absorbance of a starch solution after incubation. Thereafter, the IC50 value was determined from the plot of % inhibition versus concentration.

Salmonella typhi = test: Broth microdilution antimicrobial assay, S. typhi; type: cell-based; conditions: for MBC: Salmonella enterica, TYPHI, read-out: MBC S. typhi
Experimental: as §1, §2, §3, §4

Aspergillus niger = test: Broth microdilution antimicrobial assay, A. niger; type: cell-based; conditions: read-out: MFC A. niger
Experimental: as §1, §2, §3, §4

[1] = DPPH radical scavenging activity; conditions: absorbance at 517 nm, 30 min; mean ± SD (n = 3)
Experimental: (§5) The antioxidant activities of Schiff bases (1–9) were determined by DPPH, ABTS^+, H2O2, ferric reducing power assays, and compared with 3,4,5-trihydroxybenzoic acid (10), 5-(1,2-dihydroxyethyl)-3,4-dihydroxyfuran-2(5H)-one (11), and 2-(3,4-dihydroxyphenyl)-3,5,7-trihydroxy-4H-chromen-4-one (12) (as controls).
The scavenging activity of compounds (1–12) was evaluated by adding an ethanolic solution of DPPH (300 μL, 0.05 mM) and incubated for 30 min in the dark. After that, changes in the absorbance of the mixture were measured at 517 nm on a UV-Vis spectrophotometer. The percentage radical scavenging activities (%RSA) and half maximal inhibitory concentration (IC50) of the compounds were estimated from Equation (2) and by linear regression analysis, respectively. All studies were carried out in triplicate. (2) % RSA= 100⌊(Abs. of DPPH − Abs. of test compound)/(Abs. of DPPH)⌋

[2] = ABTS radical cation decolourisation assay; conditions: absorbance at 734 nm, 30 min; mean ± SD (n = 3)
Experimental: as §5
A mixture of ABTS (960.2 mg) and potassium persulphate (165.6 mg) was dissolved in 250 mL of distilled water to generate the blue-green ABTS^+ solution. The ABTS solution was stored away in the dark at ambient temperature for 24 h to generate sufficient ABTS radical cation (ABTS^+), then the absorbance was adjusted to 0.9547 with distilled water. Precisely 40 µL solution of the compounds were added to 3 mL ABTS^+ solution and incubated at 298 K for 30 min in the dark. Changes in concentration of ABTS^+ were measured at 734 nm on a spectrophotometer. The degree of ABTS^+ decolourisation was a template for evaluating the percentage proton-donating potential (%PDP) of the test compounds [24]; estimated from Equation (3). The IC50 (μM) of the compounds were determined by linear regression analysis, and all analyses were carried out in triplicate. (3) % PDP = 100⌊(Abs. of ABTS ^+ − Abs. of test compound)/(Abs. of ABTS^+)⌋

Escherichia coli = test: Broth microdilution antimicrobial assay, E. coli; type: cell-based; conditions: Escherichia coli, read-out: MBC E. coli
Experimental: as §1, §2, §3, §4

Staphylococcus aureus = test: Broth microdilution antimicrobial assay, S. aureus; type: cell-based; conditions: Staphylococcus aureus, read-out: MBC S. aureus
Experimental: as §1, §2, §3, §4

α-glucosidase = test: α-Glucosidase inhibitory activity; type: biochemical; conditions: Means ×10^2 ± SD from at least three experiments
Experimental: The inhibitory activity of Schiff bases (1-9) against α-glucosidase was assessed by the method previously described by […] et al. […] Then, approximately 0.2 mL of Schiff base solution was mixed with 1.0 mL of 50 mM sodium phosphate buffer (pH 6.9) and 50 μL of α-glucosidase solution (2 U/mL). Thereafter, incubated at 37 °C for 10 min, followed by the addition of exactly 50 μL of 0.7 mM p-nitrophenyl-α-D-glucopyranoside solution in 50 mM sodium phosphate buffer (pH 6.9) and further incubated for 30 min at 37 °C. The reaction was terminated by the addition of 2.0 mL solution of 0.5 M Na2CO3. 0.3 mL aliquot of the above mixture was mixed with 4.7 mL of distilled water and the absorbance measured at 405 nm. […] (6) α - glucosidase inhibition (%) = (Ae - ASB/Ae)100 where Ae is the absorbance of the enzyme solution after incubation and ASB is the absorbance after incubation of Schiff bases solution. The assay was performed in triplicate.

Enterococcus faecalis = test: Broth microdilution antimicrobial assay, E. faecalis; type: cell-based; conditions: Enterococcus faecalis, read-out: MBC E. faecalis
Experimental: as §1, §2, §3, §4

H2O2-scavenging activity = conditions: absorbance at 230 nm; mean ± SD (n = 3)
Experimental: as §5
According to the methods of Ruch et al., the H2O2 scavenging activity of compounds (1–12) was evaluated. To 100 µL aliquot of the test compounds was added 0.4 mL of 50 mM phosphate buffer followed by 0.6 mL of 2 mM H2O2 solution prepared in 50 mM phosphate buffer (pH 6.8). The absorbance of the mixture was measured at 230 nm, thereafter, the %H2O2 scavenging activity (Equation (4)) and IC50 (μM) of the compounds 1–12 was determined. All analyses were carried out in triplicate. (4) % H2O2 − scavenging activity = 100⌊(Abs. of H2O2 − Abs. of test compound)/(Abs. of H2O2)⌋

Row | SMILES | MFC (Candida albicans) [µM] | IC50 (α-amylase) [µM] | melting point [°C] | MBC (Salmonella typhi) [µM] | MFC (Aspergillus niger) [µM] | IC50 [1] [µM] | IC50 [2] [µM] | MBC (Escherichia coli) [µM] | MBC (Staphylococcus aureus) [µM] | IC50 (α-glucosidase) [µM] | MBC (Enterococcus faecalis) [µM] | IC50 (H2O2-scavenging activity) [µM] | MFC (Candida albicans; 24 h) [µM] | MBC (Salmonella typhi; 24 h) [µM] | MFC (Aspergillus niger; 24 h) [µM] | MBC (Staphylococcus aureus; 24 h, * = no bactericidal effect at the evaluated concentration, n = 3) [µM] | MBC (Enterococcus faecalis; 24 h) [µM] | MBC (Escherichia coli; n = 3) [µM] | MBC (Enterococcus faecalis; * = no bactericidal effect at the evaluated concentration, n = 3) [µM] | antibacterial activity (growth inhibition), S. typhi (Salmonella typhi)
1 | Oc1cc(N=Cc2ccccc2O)n[nH]1 [Compound 2, 3-(((2-hydroxyphenyl)methylidene)amino)-1H-pyrazol-5-ol] | > 4.31 | 91 ± 9 | 370 | > 4.31 | > 4.31 | 390 ± 5 | 510 ± 5 | 4.31 (≈ 0.876 µg/mL) | 4.31 (≈ 0.876 µg/mL) | 120 ± 51 | > 4.31 | 410 ± 6 |  |  |  |  |  |  |  | 
2 | O=[N+]([O-])c1ccc(C=Nc2ccc(O)cc2)cc1 [Compound 4, 4-(((4-nitrophenyl)methylidene)amino)phenol] |  | 1380 ± 17 | 202 |  |  | 290 ± 6 | 370 ± 6 | 2.07 (≈ 0.501 µg/mL) |  | 1390 ± 91 |  | 370 ± 7 | > 4.31 | > 4.31 | > 4.31 | 4.31 (≈ 1.04 µg/mL) | > 4.31 |  |  | 
3 | Oc1ccc(N=Cc2ccccc2O)cc1 [Compound 5, 4-(2-hydroxybenzylideneamino)phenol] | > 4.69 |  |  | > 4.69 | > 4.69 | 260 ± 5 | 110 ± 5 |  | > 4.69 | 1380 ± 1250 |  | 320 ± 6 |  |  |  |  |  | 4.69 (≈ 1 µg/mL) | 4.69 (≈ 1 µg/mL) | 
4 | Oc1ccc(N=Cc2ccccc2)cc1 [Compound 6, 4-(benzylideneamino)phenol] | > 5.07 | 1410 ± 17 | 302 | > 5.07 | > 5.07 | 380 ± 2 | 260 ± 6 |  | > 5.07 | 1420 ± 1730 | > 5.07 | 380 ± 5 |  |  |  |  |  | 2.54 (≈ 0.501 µg/mL) |  | 
5 | O=S(=O)(O)c1cc(O)c(N=Cc2ccccc2O)c2ccccc12 [Compound 8, 4-(2-hydroxybenzylideneamino)-3-hydroxynaphthalene-1-sulphonic acid] | 1.46 (≈ 0.501 µg/mL) | 420 ± 34 | 296 | > 2.92 | 1.46 (≈ 0.501 µg/mL) | 210 ± 5 | 140 ± 5 | 1.46 (≈ 0.501 µg/mL) | > 2.92 | 500 ± 82 | > 2.92 | 240 ± 17 |  |  |  |  |  |  |  | inhibited only the growth of S. typhi
6 | O=C(O)c1cc(O)c(O)c(O)c1 [Compound 10, 3,4,5-trihydroxybenzoic acid, reference compound] |  |  |  |  |  | 420 ± 3 | 580 ± 7 |  |  |  |  | 460 ± 11 |  |  |  |  |  |  |  | 
7 | O=C1OC(C(O)CO)C(O)=C1O (centres unmarked) [Compound 11, 5-(1,2-dihydroxyethyl)-3,4-dihydroxyfuran-2(5H)-one, reference compound] |  |  |  |  |  | 350 ± 5 | 530 ± 6 |  |  |  |  | 440 ± 7 |  |  |  |  |  |  |  | 
8 | O=c1c(O)c(-c2ccc(O)c(O)c2)oc2cc(O)cc(O)c12 [Compound 12, 2-(3,4-dihydroxyphenyl)-3,5,7-trihydroxy-4H-chromen-4-one, reference compound] |  |  |  |  |  | 240 ± 3 | 270 ± 8 |  |  |  |  | 270 ± 10 |  |  |  |  |  |  |  | 

— paper PMC6162693, “Investigation into the Thermal Response and Pharmacological Activity of Substituted Schiff Bases on α-Amylase and α-Glucosidase” (Antioxidants, 2018)
